Test results reported in patent publication US9062041B2 (Bayer Intellectual Property GmbH, priority 2011, dated 2015).
pIC50: −log10 of the molar value.

What was measured:
Format in all cases: cell-based
[1] = target: EP2 subtype of the human PGE2 receptor (Homo sapiens, UniProt P43116); experiment: cAMP antagonism test on the human EP2 receptor (HTRF cAMP detection); conditions: hEP2 receptor, read-out: Antagonism hEP2 IC50
Method in brief: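 Read-out is a competitive HTRF for cAMP: lysate cAMP displaces cAMP-d2 from Eu cryptate-labelled antibody, and antagonism raises the 665/620 nm ratio. Compound (0.8 nM–16.5 μM) added to EP2 cells 20 min at RT before 60 min PGE2 challenge (3× stock 1.5 nM) with IBMX, followed by 20 min lysis.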

[2] = target: EP4 subtype of the human PGE2 receptor (Homo sapiens, UniProt P35408); experiment: cAMP antagonism test on the human EP4 receptor (HTRF cAMP detection); conditions: selectivity towards hEP4, IC50 measured by cAMP antagonism test
EP4 subtype of the human PGE2 receptor, sequence (P35408 whole entry): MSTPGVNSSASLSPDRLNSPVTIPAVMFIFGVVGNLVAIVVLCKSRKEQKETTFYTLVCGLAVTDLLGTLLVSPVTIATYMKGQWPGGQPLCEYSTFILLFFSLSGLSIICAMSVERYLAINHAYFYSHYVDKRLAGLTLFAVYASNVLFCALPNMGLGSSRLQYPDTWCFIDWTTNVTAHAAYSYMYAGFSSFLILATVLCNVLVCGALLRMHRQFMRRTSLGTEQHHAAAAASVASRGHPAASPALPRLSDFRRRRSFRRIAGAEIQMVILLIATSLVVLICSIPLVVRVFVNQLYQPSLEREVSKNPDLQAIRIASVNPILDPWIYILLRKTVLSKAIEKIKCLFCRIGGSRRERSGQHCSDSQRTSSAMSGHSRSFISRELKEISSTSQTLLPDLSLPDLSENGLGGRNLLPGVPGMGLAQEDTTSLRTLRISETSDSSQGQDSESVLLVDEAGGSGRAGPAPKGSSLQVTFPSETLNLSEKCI
Method in brief: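 Competitive HTRF cAMP read-out (cAMP-d2 vs Eu-cryptate anti-cAMP antibody, 665/620 nm ratio) on lysed human EP4 cells. Compound (0.8 nM–16.5 μM) applied 20 min at RT before 60 min PGE2 challenge (3× solution 0.3 nM, IBMX present); 20 min lysis precedes reading.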

human PGD receptor = target: T1, human PGD receptor (Homo sapiens, UniProt Q13258); experiment: cAMP antagonism test on the human prostaglandin D receptor (HTRF cAMP detection); conditions: selectivity towards hDP, IC50 measured by cAMP antagonism test
T1 sequence (Q13258 1-359): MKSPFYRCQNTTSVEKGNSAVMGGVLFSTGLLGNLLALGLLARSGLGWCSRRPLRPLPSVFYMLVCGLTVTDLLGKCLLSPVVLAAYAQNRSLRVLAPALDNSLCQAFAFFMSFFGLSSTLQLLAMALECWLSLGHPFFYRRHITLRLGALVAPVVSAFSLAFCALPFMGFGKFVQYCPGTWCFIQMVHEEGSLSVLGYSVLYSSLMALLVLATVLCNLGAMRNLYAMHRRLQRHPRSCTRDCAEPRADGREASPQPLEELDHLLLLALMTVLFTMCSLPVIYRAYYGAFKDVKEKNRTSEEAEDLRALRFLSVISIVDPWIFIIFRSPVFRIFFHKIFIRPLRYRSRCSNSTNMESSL
Method in brief: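 HTRF competition read-out (665/620 nm ratio ×10000), where higher FRET means less cAMP, i.e. antagonism. Compounds (0.8 nM–16.5 μM) were preincubated 20 min at RT with cells and cAMP-d2, PGD2 (3× solution, 6 nM) in IBMX-containing PBS added for 30 min at RT, then cells lysed 20 min.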

EP2 subtype of the human PGE2 receptor, sequence (P43116 whole entry): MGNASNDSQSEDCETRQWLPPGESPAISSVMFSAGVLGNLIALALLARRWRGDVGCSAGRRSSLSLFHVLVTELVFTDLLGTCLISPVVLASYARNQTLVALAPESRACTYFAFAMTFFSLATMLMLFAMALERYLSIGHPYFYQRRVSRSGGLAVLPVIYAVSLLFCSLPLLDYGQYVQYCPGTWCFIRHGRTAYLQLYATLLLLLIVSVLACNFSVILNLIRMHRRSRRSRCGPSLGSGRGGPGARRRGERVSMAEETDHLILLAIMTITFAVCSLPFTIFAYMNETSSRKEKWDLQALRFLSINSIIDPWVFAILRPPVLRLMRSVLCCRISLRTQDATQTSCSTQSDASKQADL

Row | Structure (SMILES) | pIC50 [1] | Selectivity hEP2/hEP4 [2] | Selectivity hEP2/hDP (human PGD receptor)
1 | COCCNC(=O)c1ccc2nn(CC3CCN(C(=O)c4cccc(Cl)c4)CC3)cc2c1C [Example 28, 2-{[1-(3-chloro-benzoyl)piperidin-4-yl]methyl}-N-(2-methoxyethyl)-4-methyl-2H-indazol-5-carboxamide] | 7.47 | xxx (xxx > 100) | xxx (xxx > 100)
2 | Cc1cc2nn(CC3CCN(C(=O)c4ccc(-c5ccc(F)cc5)cc4)CC3)cc2cc1C(=O)NCCN1CCOCC1 [Example 83, 2-({l-[(4′-fluoro-biphenyl-4-yl)-carbonyl]piperidin-4-yl}methyl)-6-methyl-N-(2-morpholino-ethyl)-2H-indazol-5-carboxamide] | 7.49 | xxx (xxx > 100) | xxx (xxx > 100)
3 | COCCNC(=O)c1ccc2nn(CC3CCN(C(=O)c4ccc(Br)cc4F)CC3)cc2c1C [Example 8, 2-{[1-(4-bromo-2-fluorobenzoyl)piperidin-4-yl]methyl}-N-(2-methoxyethyl)-4-methyl-2H-indazol-5-carboxamide] | 8.03 | xxx (xxx > 100) | xxx (xxx > 100)
4 | Cc1c(C(=O)NCCN2CCOCC2)ccc2nn(CC3CCN(C(=O)c4cccc(S(F)(F)(F)(F)F)c4)CC3)cc12 [Example 64] | 5.38 | x (x: 1-10) | x (x: 1-10)
5 | COCCNC(=O)c1ccc2nn(CC3CCN(C(=O)c4ccc(-c5cnco5)cc4)CC3)cc2c1C [Example 36, N-(2-methoxyethyl)-4-methyl-2-({1-[4-(oxazol-5-yl)-benzoyl]piperidin-4-yl}methyl)-2H-indazol-5-carboxamide] | 7.21 | xxx (xxx > 100) | xxx (xxx > 100)
6 | COCCNC(=O)c1ccc2nn(CC3CN(C(=O)c4ccc(Oc5ccc(F)cc5)cc4)C3)cc2c1C [Example 159, 2-({1-[4-(4-fluorophenoxy)benzoyl]azetidin-3-yl}methyl)-N-(2-methoxyethyl)-4-methyl-2H-indazol-5-carboxamide] | 8.20 | xxx (xxx > 100) | xxx (xxx > 100)
7 | Cc1c(C(=O)NCC(C)OCC2CC2)ccc2nn(CC3CCN(C(=O)c4ccc(Oc5ccc(F)cc5)cc4)CC3)cc12 (racemic) [Example 103, (+/−)-N-[2-(cyclo-propylmethoxy)-propyl]-2-({1-[4-(4-fluorophenoxy)-benzoyl]piperidin-4-yl}-methyl)-4-methyl-2H-indazol-5-carboxamide] | 6.23 | xx (xx: 10-100) | xx (xx: 10-100)
8 | COCCNC(=O)c1ccc2nn(CC3CN(C(=O)c4ccc(Cl)c(C(F)(F)F)c4)C3)cc2c1C [Example 123, 2-({1-[4-chloro-3-(trifluoromethyl)benzoyl]azetidin-3-yl}methyl)-N-(2-methoxy-ethyl)-4-methyl-2H-indazol-5-carboxamide] | 8.05 | xxx (xxx > 100) | xxx (xxx > 100)
9 | [2H]C([2H])([2H])OC([2H])([2H])C([2H])([2H])NC(=O)c1ccc2nn(CC3CCN(C(=O)c4ccc(Cl)cc4)CC3)cc2c1C [Example 115, 2-{[1-(4-chlorobenzoyl)piperidin-4-yl]methyl}-N-(2-[^2H3]methoxy[^2H4]ethyl)-4-methyl-2H-indazol-5-carboxamide] | 8.04 | xxx (xxx > 100) | xxx (xxx > 100)

Second part, the molecule after the results:

Row | pIC50 [1] | Selectivity hEP2/hEP4 [2] | Selectivity hEP2/hDP (human PGD receptor) | Structure (SMILES)
10 | 6.83 | xxx (xxx > 100) | xxx (xxx > 100) | Cc1cc2nn(CC3CN(C(=O)c4ccc(S(F)(F)(F)(F)F)cc4)C3)cc2cc1C(=O)NCC(F)(F)F [Example 188, 6-methyl-2-({1-[4-(pentafluoro-λ^6-sulphanyl)benzoyl]azetidin-3-yl}methyl)-N-(2,2,2-trifluoroethyl)-2H-indazol-5-carboxamide]
11 | 8.12 | xxx (xxx > 100) | xxx (xxx > 100) | COCCNC(=O)c1ccc2nn(CC3CCN(C(=O)c4ccc(SC(F)(F)F)cc4)CC3)cc2c1OC [Example 269, 4-methoxy-N-(2-methoxyethyl)-2-[(1-{4-[(trifluoromethyl)sulphanyl]benzoyl}-piperidin-4-yl)methyl]-2H-indazol-5-carboxamide]
12 | 7.32 | xxx (xxx > 100) | xxx (xxx > 100) | CCOc1c(C(=O)NCCOC)ccc2nn(CC3CN(C(=O)c4ccc(S(F)(F)(F)(F)F)cc4)C3)cc12 [Example 277, 4-ethoxy-N-(2-methoxyethyl)-2-({1-[4-(pentafluoro-λ^6-sulphanyl)benzoyl]-azetidin-3-yl}methyl)-2H-indazol-5-carboxamide]
13 | 8.04 | xxx (xxx > 100) | xxx (xxx > 100) | Cc1c(C(=O)NCC2CCCCO2)ccc2nn(CC3CCN(C(=O)c4ccc(Cl)cc4)CC3)cc12 (single isomer, unassigned) [Example 241, (S or R)-2-{[1-(4-chlorobenzoyl)piperidin-4-yl]methyl}-4-methyl-N-(3,4,5,6-tetrahydro-2H-pyran-2-ylmethyl)-2H-indazol-5-carboxamide]
14 | 6.81 | xxx (xxx > 100) | xxx (xxx > 100) | Cc1c(C(=O)NCC#N)ccc2nn(CC3CCN(C(=O)c4ccc(Cl)cc4)CC3)cc12 [Example 401, 2-{[1-(4-chlorobenzoyl)piperidin-4-yl]methyl}-N-(cyanomethyl)-4-methyl-2H-indazol-5-carboxamide]
15 | 8.50 | xxx (xxx > 100) | xxx (xxx > 100) | COCCNC(=O)c1ccc2nn(CC3CCN(C(=O)c4ccc(-c5ccc(F)cc5)c(C)c4)CC3)cc2c1C [Example 390, 2-({1-[(4′-fluoro-2-methylbiphenyl-4-yl)carbonyl]piperidin-4-yl}methyl)-N-(2-methoxyethyl)-4-methyl-2H-indazol-5-carboxamide]
16 | 7.25 | xxx (xxx > 100) | xxx (xxx > 100) | Cc1c(C(=O)NCC(F)(F)F)ccc2nn(CC3CCN(C(=O)c4ccc(Oc5ccc(Cl)cc5)cc4)CC3)cc12 [Example 284, 2-({1-[4-(4-chlorophenoxy)benzoyl]piperidin-4-yl}methyl)-4-methyl-N-(2,2,2-trifluoroethyl)-2H-indazol-5-carboxamide]
17 | 8.18 | xxx (xxx > 100) | xxx (xxx > 100) | COCCNC(=O)c1ccc2nn(CC3CCN(C(=O)c4ccc(-c5ccc(C(F)(F)F)nc5)cc4)CC3)cc2c1C [Example 374, N-(2-methoxyethyl)-4-methyl-2-[(1-{4-[6-(trifluoromethyl)pyridin-3-yl]-benzoyl}piperidin-4-yl)methyl]-2H-indazol-5-carboxamide]
18 | 8.23 | xxx (xxx > 100) | xxx (xxx > 100) | COCCNC(=O)c1ccc2nn(CC3CCN(C(=O)c4ccc(-c5ccc(C#N)cc5C)cc4)CC3)cc2c1C [Example 367, 2-({1-[(4′-cyano-2′-methylbiphenyl-4-yl)carbonyl]piperidin-4-yl}methyl)-N-(2-methoxyethyl)-4-methyl-2H-indazol-5-carboxamide]
